# Source: patent US8552013B2, “Heterocyclic compounds based on N6-substituted adenine, methods of their preparation, their use for preparation of drugs, cosmetic preparations and growth regulators, pharmaceutical preparations, cosmetic preparations and growth regulators containing these compounds” (USTAV Experimentalni Botaniky Akademie Ved Ceske Republiky, priority 2001, dated 2013)
# Entries after “also recorded” stand apart in the source; their conditions may differ.
# How the values were obtained:
# [1] = system: MCF-7 cell line; experiment: Apoptosis in MCF-7, Anexin FITC V / propidium iodide staining; type: cell-based, human; settings: FIG. 3; 6 h, 20 μM apoptotic cells
# Protocol: A MCF-7, apoptotic cells: 6 h, 12, 20 μM, B MCF-7, secondary necrotic cells (i.e. necrosis following apoptosis), 12 h, 12, 40 μM; C MCF-7, necrotic cells, 24 h, 12, 40 μM. Anexin FITC V (Mol. Probes) and propidium iodide staining: anexin—green, PI—red.
# Analysed using “Olympus image analysis” after treatment of MCF-7 tumour cells by 6-(2-hydroxy-3-methoxybenzylamino)purine. A,B—control cells without treatment; C,D—apoptotic cells (condensation of chromatin); A,C—fluorescence microscopy; B,D—fluorescence image analysis.
# [2] = system: human diploid fibroblasts (HCA cells); experiment: Senescence, beta-galactosidase staining of human diploid fibroblasts; type: cell-based
# Procedure, shortened: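 HCA fibroblasts at passages 25, 45 and 80 were fixed for 5 min at room temperature in 2% formaldehyde/0.2% glutaraldehyde. They were then incubated at 37 °C without CO2 for 1 to 16 hours with X-gal 1 mg/ml, 5 mM ferri- and ferrocyanide and 2 mM MgCl2 in citric/phosphate buffer, pH 6.0. Blue-stained cells were scored.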
# [3] = system: Triticum aestivum cv. Hereward leaf tips; experiment: Retention of chlorophyll in excised wheat leaf tips; type: in vivo; settings: chlorophyll retention at the concentration with highest activity
# Procedure, shortened: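 Tips of first leaves from 7-day wheat (cv. Hereward) seedlings kept on compound solutions (10^−8 to 10^−4 M, from DMSO stock) for 96 h in the dark at 25 °C. Chlorophyll extracted in 80% ethanol at 80 °C and read at 665 nm. Activity at the best concentration expressed relative to 10^−4 M BAP (100%), five replicates.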
# [4] = system: B16-F0 melanoma; experiment: Calcein AM cytotoxicity, B16-F0; type: cell-based; settings: Mus musculus, B16F0, 72 h, read-out: IC 50, B16-F0
# Text: One of the parameters used, as the basis for cytotoxicity assays, is the metabolic activity of viable cells. For example, a microtiter assay, which uses the Calcein AM, is now widely used to quantitate cell proliferation and cytotoxicity. For instance, this assay is used in drug screening programs and in chemosensitivity testing. Because only metabolically active cells cleave Calcein AM, these assays detect viable cells exclusively. The quantity of reduced Calcein AM corresponds to the number of vital cells in the culture.
# Human T-lymphoblastic leukemia cell line CEM; promyelocytic HL-60 and monocytic U937 leukemias; breast carcinoma cell lines MCF-7, BT549, MDA-MB-231; glioblastoma U87MG cells; cervical carcinoma cells HELA; sarcoma cells U2OS and Saos2; hepatocellular carcinoma HepG2; mouse fibroblasts NIH3T3; mouse immortalized bone marrow macrophages B2.4 and B10A.4; P388D1 and L1210 leukemia; B16 and B16F10 melanomas were used for routine screening of compounds. The cells were maintained in Nunc/Corning 80 cm^2 plastic tissue culture flasks and cultured in cell culture medium (DMEM with 5 g/l glucose, 2 mM glutamine, 100 U/ml penicillin, 100 μg/ml streptomycin, 10% fetal calf serum and sodium bicarbonate).
# The cell suspensions that were prepared and diluted according to the particular cell type and the expected target cell density (2.500-30.000 cells per well based on cell growth characteristics) were added by pipette (80 μl) into 96/well microtiter plates. Inoculates were allowed a pre-incubation period of 24 hours at 37° C. and 5% CO2 for stabilisation. Four-fold dilutions of the intended test concentration were added at time zero in 20 μl aliquots to the microtiter plate wells. Usually, test compound was evaluated at six 4-fold dilutions. In routine testing, the highest well concentration was […], but it can be the matter of change dependent on the agent. All drug concentrations were examined in duplicates. Incubations of cells with the test compounds lasted for 72 hours at 37° C., in 5% CO2 atmosphere and 100% humidity. At the end of incubation period, the cells were assayed by using the Calcein AM. Ten microliters of the stock solution were pipetted into each well and incubated further for 1 hours. Fluorescence (FD) was measured with the Labsystem FIA Reader Fluoroscan Ascent (UK). The tumour cell survival (GI50) was calculated using the following equitation: TCS═(FDdrug exposed well/mean FDcontrol wells)×100%. The GI50 value, the drug concentration lethal to 50% of the tumour cells, was calculated from the obtained dose response curves (FIG. 1).
# [5] = system: Amaranthus caudatus cotyledon/hypocotyl explants; experiment: Amaranthus bioassay, betacyanin content; type: in vivo; settings: betacyanin content at the concentration with highest activity
# [6] = system: senescent human skin fibroblasts; experiment: Numbers of surviving senescent cells (Coulter counter); type: cell-based
# Protocol: Equal numbers of senescent cells were seeded in separate flasks and were treated with different concentrations of para-topolin. Cell numbers were determined by using a Coulter counter after trpsinization and resuspension of cells after 7 and 14 days of treatment.
# Equal numbers of senescent cells were seeded in separate flasks and were treated with different concentrations of ortho-topolin. Cell numbers were determined by using a Coulter counter after trypsinisation and resuspension of cells, after 7 and 14 days of treatment.
# [7] = system: senescent human skin fibroblasts; experiment: Actin staining of senescent cells (FITC-Phalloidin); type: cell-based; settings: after 3 days; meta 40 μM
# Text: Actin staining: The pattern of cytoskeletal actin staining was studied by staining the cells with florescent ligand FITC-labelled Phalloidin, using a fluorescence microscope
# [8] = system: proteasome; experiment: Proteasomal chymotrypsin-like activity in cell extracts of treated cells; type: cell-based, human; settings: 40, 80 and 200 μM
# Protocol: Chymotrypsin-like activity in cell extracts prepared from treated and untreated cells was determined by in vitro degradation of oligopeptides by the proteasome.
# [9] = system: lysosomes of fibroblast cells; experiment: Lysosomal activity, neutral red uptake; type: cell-based, human
# Protocol: Neutral Red is preferentially taken up into the lysosomes of the cell. Fibroblast cells are maintained in culture and exposed to test compounds over a range of concentrations. The cultures are visually examined after 72 hours, and the number of viable cells and/or the total cell protein content determined, after 72 hours exposure, by the Neutral Red Uptake method. Advantage of Neutral Red assay is that it detects only viable cells. Any chemical having a localized effect upon the lysosomes will, therefore, result in an artificially low (or possibly high) reflection of cell viability and cell number. This factor does, however, make the system useful to detect those compounds which selectively affect the lysosomes, especially when it is used in conjunction with other tests capable of determining cell number.
# The NR assay has been applied to evaluation and ranking the cytotoxicity of a spectrum of compounds. Individual wells of a 96-well tissue culture microtiter plate were inoculated with 0.2 ml of the appropriate media containing cells (usually 3×10^3 cells). After 1 to 2 days of incubation, the media were removed and replaced with unamended (control) medium or with medium amended with varied concentrations of the compound to be tested. After 3 days of exposure to the compound, media were removed and replaced with media containing 0.001% NR. The assay plate was then returned to the incubator for another 3 h to allow for uptake of the supravital dye into the lysosomes of viable cells. Thereafter, the media were removed and the cells were rapidly washed with 0.5% formaldehyde-1% CaCl2 followed by 0.2 ml of a solution of 1% acetic acid-50% ethanol to extract the dye from the cells. After 10 min at room temperature and a brief but rapid agitation on a microtiter plate shaker, the plates were transferred to a microplate spectrophotometer equipped with a 540-nm filter to measure the absorbance of the extracted dye.
# The toxicities of the various compounds were compared with those of the control cultures by computing the data obtained.
# [10] = system: human skin fibroblasts; experiment: Cell survival, MTT assay; type: cell-based; settings: 3 days
# Protocol: Cell survival after exposure to various doses was measured with the 3-(4,5 dimethylthiazol-2-yl)-2,5-diphenyltetrazolium bromide (MTT) assay. About 5,000 cells were seeded per well in a 96-well plate 24 h before the experiment. Cells were then treated with various doses of the compound to be tested. The wells were washed in Hank's and new medium was added. After three days, MTT (Sigma, M2128) was added at 0.5 mg/ml in medium. After 4 h, MTT was removed and isopropanol and HCl were added to dissolve the MTT crystals for 12-16 h. The absorbance at 595 nm was measured.
# [11] = system: human adult skin fibroblasts; experiment: Short-term growth of human skin fibroblasts (cell counts, Giemsa); type: cell-based
# Protocol: (§1) All experiments were performed on early and mid passage cultures (about 20 to 40% lifespan completed) of normal human adult skin fibroblast line; designated ASF-2 & Senetek cell line (about 10-90% lifespan completed); designated as SF20. In order to check the effects of test compounds on senescent cells, late passage cells with more than 95% lifespan completed were used. ASF-2 and SF20 cell lines were established from a mammary skin biopsy obtained from a young, non-smoking and healthy […] at the time of breast reduction operation. Normal culture conditions of medium (DMEM) containing antibiotics, 10% foetal calf serum, and incubation at 37° C. with 95% humidity were used. The effects of the test chemicals were determined in the following conditions:
# Short-term growth experiments were performed using 24-well tissue culture plates (growth area 1.9 cm^2). Freshly prepared cell suspensions from mass cultures of ASF-2 cells maintained in our labs were used. About 10,000 cells were seeded into 6 sets of 24-well plates. The cells were allowed to attach and stabilize for 24 hr in normal culture medium to achieve various final concentrations (range 40 to 500 μM). Culture medium was changed with the addition of test chemicals twice a week. The numbers of cells were counted after different days of treatment in 2 wells from each concentration of the test chemical, by following the normal method of cell trypsinization and counting using a Coultercounter. The third well in each category was fixed by cold methanol and stained with Giemsa stain for permanent record and for photography. The experiment was carried on for until the cultures became fully confluent and no further growth was possible.
# [12] = system: human skin fibroblasts; experiment: beta-galactosidase staining of treated skin fibroblasts; type: cell-based; settings: short-term growth treatment
# [13] = system: senescent human skin fibroblasts; experiment: Morphology of senescent cells; type: cell-based
# Protocol: as §1
# Senescent human skin fibroblasts were treated with various doses of para-topolin to see if this treatment could reverse age-related alterations in their morphology. […] The cells progressively became heterogeneous with large and flattened appearance.
# [14] = system: human skin fibroblasts; experiment: Series of experiments on short-term effects on human skin fibroblasts, conclusion; type: cell-based; settings: para at a dose of 40 μM
# Protocol: as §1
# The experiments were performed to determine the effects of short-term treatment of ortho-topolin, meta-topolin, and para-topolin on cell attachment, survival, growth, apoptosis, actin cytoskeletal pattern, lysosomal activity, proteasomal activity and morphology of human skin fibroblasts in culture.
# [15] = system: human skin fibroblasts; experiment: Cell attachment of human skin fibroblasts; type: cell-based
# Protocol: as §1, with “conditions: […]” for “conditions:”
compound,measurement,setting,value
COc1cccc(CNc2ncnc3nc[nH]c23)c1O [6-(2-hydroxy-3-methoxybenzylamino)purine],apoptosis in MCF-7 tumour cells,[1],induced apoptosis
same,SENESCENT CELLS (%) HCA25,[2]; passage 25,4%
same,SENESCENT CELLS (%) HCA45,[2]; passage 45,3%
same,SENESCENT CELLS (%) HCA80,[2]; passage 80,20%
same,Activity (%) [10^−4 mol · l^−1 BAP = 100%],[3],34 (±5) %
same,IC50,[4],69 µM
same,activity (%) [10^−5 mol · l^−1 BAP = 100%],[5],19 (±3) %
"Oc1ccc(CNc2ncnc3nc[nH]c23)cc1 [para-topolin, 6-(4-hydroxybenzylamino)purine]",growth of senescent cells,"[6]; 200 μM, 7 to 14 days",no further growth of the cells was observed
same,numbers of surviving senescent cells,[6]; 7 to 14 days of treatment,tolerant to para-topolin until 80 μM
same,actin staining pattern in senescent cells,[7],no obvious differences
same,"proteasomal activity (chymotrypsin-like), removal of oxidized and abnormal proteins",[8],slight improvement; also recorded: observed in a dose dependent manner
same,neutral red staining pattern of cells,[9]; 40 μM-500 μM,autophagy
same,reduction in the macro-molecular turn over rate,[9]; 80 & 200 μM,10-15%
same,reduction in cell survival,[10]; 200-500 μM,15-25%
same,dose until which not cytotoxic / no toxic effect on survival (MTT),[10]; range 0.01-500 μM,100 µM
same,Cell growth (summary),[11]; 40 μM,not affected
same,Cell growth lower,[11]; 40 μM,10%
same,reduction of cell growth,[11]; 80 μM,over 40%
same,"appearance of dermal cells, microscopic examination (summary)",[11]; 40 and 80 μM,Healthy appearances of the cells were maintained
same,Cell growth (summary),"[11]; 80, 200 and 500 μM",reduced
same,"appearance of dermal cells, microscopic examination (summary)",[11]; 200 and 500 μM,toxic effects with enlargement in cell sizes
same,appearance of cells,"[11]; 200 and 500 μM, eleven days","large in appearance, irregularly arranged and few in numbers"
same,dose over which cytotoxicity of cells was seen,[11]; Giemsa pictures after eleven days,> 80 µM
same,Cellular growth at higher concentrations,"[11]; para 200 to 500 μM after 11 days, ortho 200 and 400 μM after 7 days, meta 400 μM",almost a total inhibition
same,"number of prematurely senescent cells, beta-galactosidase staining",[12],did not show any increase
same,appearance of senescent cells on longer treatment,"[13]; 14 days, ortho and meta 80 μM and above",began to shrink and die
same,appearance of senescent cells,[13]; after 7 days of treatment (para: 7 days and 14 days; meta: low concentrations),subtle differences
same,conclusion on short-term effects on human skin fibroblasts,[14],beneficial anti-aging effects
same,"Percent of cells attached, effect in words","[15]; 6 hours, para 40 μM to 1 mM, ortho 40 to 400 μM, meta 40 to 200 μM",not affected to any significant extent
same,Overall cell attachment improved (summary),"[15]; para at 40, 80, 100, 160, 250 and 500 μM",10-40%
